# Laboratory results as given in article PMC6841977, “Ruxolitinib binding to human serum albumin: bioinformatics, biochemical and functional characterization in JAK2V617F^+ cell models” (Scientific Reports, 2019).
# Columns and labels:
# Format in all cases: binding
# [1] = target: T1, human serum albumin (HSA) (Homo sapiens, UniProt P02768); assay: spectrofluorimetric titration (ex […] nm, em […] nm), pH […] °C
# T1 construct: gene ALB; fatty acid-free human serum albumin
# [2] = target: T1, human serum albumin (HSA); assay: as above; remark: listed apart in the source
# [3] = target: T1, human serum albumin (HSA); assay: competitive displacement of heme-Fe(III) (spectrophotometry) and dansyl-arginine (fluorescence), pH […] °C
# [4] = target: T1, human serum albumin (HSA); assay: spectrophotometric titration ([…]-460 nm), pH […] °C
# T1 sequence (P02768 25-609): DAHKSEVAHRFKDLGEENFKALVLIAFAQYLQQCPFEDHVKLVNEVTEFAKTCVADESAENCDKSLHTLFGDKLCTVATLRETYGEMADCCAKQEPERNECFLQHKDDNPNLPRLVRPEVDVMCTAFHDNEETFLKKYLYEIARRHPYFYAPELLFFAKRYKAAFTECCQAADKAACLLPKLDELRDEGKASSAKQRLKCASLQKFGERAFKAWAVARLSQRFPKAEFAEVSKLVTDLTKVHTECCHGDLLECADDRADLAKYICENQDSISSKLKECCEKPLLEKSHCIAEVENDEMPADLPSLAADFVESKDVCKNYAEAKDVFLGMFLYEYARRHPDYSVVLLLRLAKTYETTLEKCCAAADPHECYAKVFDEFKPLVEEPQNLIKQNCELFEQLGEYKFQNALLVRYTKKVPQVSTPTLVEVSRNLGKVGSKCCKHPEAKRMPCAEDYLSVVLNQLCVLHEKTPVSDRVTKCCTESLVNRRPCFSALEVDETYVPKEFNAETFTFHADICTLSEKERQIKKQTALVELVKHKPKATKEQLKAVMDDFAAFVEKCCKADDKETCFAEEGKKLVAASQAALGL
structure (smiles),measurement,setting,value
CN(C)c1cccc2c(S(=O)(=O)N(C)CC(=O)O)cccc12 [dansyl-sarcosine],Kd,[1],5.1 ± 0.5 µM
CN(C)c1cccc2c(S(=O)(=O)N[C@@H](CCCNC(=N)N)C(=O)O)cccc12 [dansyl-arginine],Kd,[2],27 ± 3 µM
N#CC[C@H](C1CCCC1)n1cc(-c2ncnc3[nH]ccc23)cn1 [ruxolitinib],Kd,[3],3.1 ± 0.4 µM
C=CC1=C(C)C2=Cc3c(C=C)c(C)c4[n]3[Fe+][n]3c(c(C)c(CCC(=O)O)c3=CC3=NC(=C4)C(C)=C3CCC(=O)O)=CC1=N2 [heme-Fe(III)],Kd,[4],0.076 ± 0.008 µM
